Laboratory results reported in patent publication US10961238B2, “Modulators of hedgehog (Hh) signaling pathway” (E-THERAPEUTICS PLC, priority 2016, dated 2021).

Experiments:
SMO = target: T1, SMO (Homo sapiens, UniProt Q99835); experiment: Smoothened (SMO) binding fluorescence polarisation assay (BODIPY-cyclopamine competition); settings: SMO binding FP assay versus C3H10T1/2 cellular assay
T1 construct: expressed in transfected cells; host or cells: HEK293
Description: Standard Protocol for Smoothened (SMO) Binding Fluorescence Polarisation Assay.
The assay measures the ability of the test compounds to compete with a fluorescently-labelled version of the known ligand, cyclopamine, for binding to SMO. The fluorescent tag used is BODIPY (boron dipyrromethene).
An aliquot of a membrane preparation from a SMO-over-expressing HEK293 cell line is diluted to protein concentration of 0.117 mg/ml in assay buffer (25 mM HEPES, 2 mM EDTA, 0.05% γ-globulin, 0.01% pluronic acid pH7.4, plus protease Inhibitor cocktail). 8.5 μl of the membrane suspension is added to each well of a black, low volume 384 well microtitre plate.
Test compounds are added in a seven point dilution range to the wells containing the membrane preparation. The final DMSO solvent concentration in the wells is maintained at 0.3%. 6.5 μl of a 6.9 nM BODIPY-cyclopamine solution is added to each of the wells (final assay concentration 3 nM).
The plate is sealed and stored in the dark at room temperature for 24 hours prior to measurement of the fluorescence polarisation signal on a Perkin Elmer Envision multi-label reader.
Table 4 below details the ratio of SMO binding compared to the potency in the C3H10T1/2 cellular assay. The small ratio between SMO binding and potency for vismodegib is considered to be reflective of the fact vismodegib acts mainly through inhibition of the SMO protein. The larger ratios for the compound of the invention are considered to be reflective of alternate actions outside of direct SMO inhibition.

C3H10T1/2 cells = experiment: C3H assay: differentiation of C3H10T1/2 cells by mSHH, measurement of alkaline phosphatase; type: cell-based, mouse; settings: Mus musculus, C3H 10T1/2; C3H10T1/2 cells stimulated with mSHH for 72 hours; alkaline phosphatase activity; read-out: IC50 Ranges

T1 sequence (Q99835 28-787): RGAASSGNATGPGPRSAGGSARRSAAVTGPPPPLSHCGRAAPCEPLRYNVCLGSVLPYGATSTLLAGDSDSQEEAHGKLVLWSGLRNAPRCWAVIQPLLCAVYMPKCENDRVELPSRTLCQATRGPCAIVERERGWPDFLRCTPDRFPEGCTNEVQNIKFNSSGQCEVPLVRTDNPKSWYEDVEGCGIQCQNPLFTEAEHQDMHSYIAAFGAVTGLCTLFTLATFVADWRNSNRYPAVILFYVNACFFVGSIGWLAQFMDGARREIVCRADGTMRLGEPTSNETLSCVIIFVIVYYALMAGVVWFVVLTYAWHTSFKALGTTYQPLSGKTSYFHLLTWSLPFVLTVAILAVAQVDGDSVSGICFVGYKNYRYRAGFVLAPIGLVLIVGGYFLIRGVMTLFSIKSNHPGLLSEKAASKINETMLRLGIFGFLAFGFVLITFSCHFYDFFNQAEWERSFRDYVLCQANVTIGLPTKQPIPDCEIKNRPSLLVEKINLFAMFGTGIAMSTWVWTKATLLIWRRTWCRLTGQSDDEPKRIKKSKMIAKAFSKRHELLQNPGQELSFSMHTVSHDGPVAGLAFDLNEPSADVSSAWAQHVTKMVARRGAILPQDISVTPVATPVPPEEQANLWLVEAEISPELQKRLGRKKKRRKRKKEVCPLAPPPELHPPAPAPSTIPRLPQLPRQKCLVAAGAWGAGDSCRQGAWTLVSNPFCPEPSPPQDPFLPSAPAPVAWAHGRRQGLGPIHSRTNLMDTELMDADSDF

| Compound | Ratio of potency in SMO binding assay to potency in C3H10T1/2 cellular assay (SMO) | IC50 (C3H10T1/2 cells) |
| --- | --- | --- |
| Cc1noc(C)c1CNC(=O)C1CC(S(=O)(=O)N2CCC(c3c[nH]c4ncccc34)CC2)C1 (stereo not shown) [Compound 284, N-[(3,5-dimethyl-1,2-oxazol-4-yl)methyl]-3-[4-(1H-pyrrolo [2,3-b]pyridin-3-yl)piperidin-1-yl]sulfonylcycl obutane-1-carboxamide] | 2.3 | 100 to 1000 nM |
| Cc1noc(C)c1NC(=O)C1CC(S(=O)(=O)N2CCC(c3c[nH]c4ncccc34)CC2)C1 (stereo not shown) [Compound 285, N-(3,5-dimethyl-1,2-oxazol-4-yl)-3-[4-(1H-pyrrolo [2,3-b]pyridin-3-yl)piperidin-1-yl]sulfonylcycl obutane-1-carboxamide] | 2.9 | 10 to 100 nM |
| Cc1noc(C)c1NC(=O)N1CC(S(=O)(=O)N2CCC(c3nc4ccccc4s3)CC2)C1 [Compound 294, 3-[4-(1,3-benzothiazol-2-yl)piperidin-1-yl]sulfonyl-N-(3,5-dimethyl-1,2-oxazol-4-yl)azetidine-1-carboxamide] | 5.0 | 100 to 1000 nM |
| O=S(=O)(C1CN(CC2(C(F)(F)F)CC2)C1)N1CCC(c2c[nH]c3ncccc23)CC1 [Compound 313, 3-[1-[1-[[1-(trifluoromethyl)cyclopropyl]methyl]azetidin-3-yl]sulfonylpiperidin-4-yl]-1H-pyrrolo[2,3-b]pyridine] | 2.7 | 100 to 1000 nM |
| CC(C)(C)C(=O)CN1CC(S(=O)(=O)N2CCC(c3c[nH]c4ncccc34)CC2)C1 [Compound 314, 3,3-dimethyl-1-[3-[4-(1H-pyrrolo[2,3-b]pyridin-3-yl)piperidin-1-yl]sulfonylaze-tidin-1-yl]butan-2-one] | 6.7 | 10 to 100 nM |
| CC(C)(C)NC(=O)N1CC(S(=O)(=O)N2CCC(c3ccc(Cl)cc3)CC2)C1 [Compound 319, N-tert-butyl-3-[4-(4-chlorophenyl)piperidin-1-yl]sulfonylaze-tidine-1-carboxamide] | 2.9 | 10 to 100 nM |
| O=C(CC(O)(C(F)(F)F)C(F)(F)F)N1CC(S(=O)(=O)N2CCC(c3c[nH]c4ncccc34)CC2)C1 [Compound 333, 4,4,4-trifluoro-3-hydroxy-1-[3-[[4-(1H-pyrrolo[2,3-b]pyridin-3-yl)-1-piperidyl]sulfonyl]azetidin-1-yl]-3-(trifluoromethyl)butan-1-one] | 2.5 | 10 to 100 nM |
| O=C(CC(O)(C(F)(F)F)C(F)(F)F)N1CC(S(=O)(=O)N2CCC(c3coc4cccnc34)CC2)C1 [Compound 334, 4,4,4-trifluoro-1-[3-(4-furo[3,2-b]pyridin-3-ylpiperidin-1-yl)sulfonylaze-tidin-1-yl]-3-hydroxy-3-(trifluoromethyl) butan-1-one] | 2.6 | 10 to 100 nM |
| Cc1ccc2c(C3CCN(S(=O)(=O)C4CN(C(=O)OC(C)(C)C)C4)CC3)c[nH]c2n1 [Compound 347, tert-butyl 3-[4-(6-methyl-1H-pyrrolo [2,3-b]pyridin-3-yl)piperidin-1-yl]sulfonylaze-tidine-1-carboxylate] | 3.8 | 10 to 100 nM |
| CC(C)(O)CC(=O)N1CC(S(=O)(=O)N2CCC(c3c[nH]c4ncccc34)CC2)C1 [Compound 397, 3-hydroxy-3-methyl-1-[3-[4-(1H-pyrrolo[2,3-b]pyridin-3-yl)piperidin-1-yl]sulfonylaze-tidin-1-yl]butan-1-one] | 3.6 | 100 to 1000 nM |
| O=C(CC(O)(C(F)(F)F)C(F)(F)F)N1CC(S(=O)(=O)N2CCC(c3ccncc3)CC2)C1 [Compound 401, 4,4,4-trifluoro-3-hydroxy-1-[3-(4-pyridin-4-ylpiperidin-1-yl)sulfonylaze-tidin-1-yl]-3-(trifluoromethyl) butan-1-one] | 3.0 | 100 to 1000 nM |
| CC(C)(C)OC(=O)N1CC(S(=O)(=O)N2CCC(c3ccnc4ccccc34)CC2)C1 [Compound 410, tert-butyl 3-(4-quinolin-4-ylpiperidin-1-yl)sulfonylaze-tidine-1-carboxylate] | 3.1 | 100 to 1000 nM |

Next, values leading:

| Ratio of potency in SMO binding assay to potency in C3H10T1/2 cellular assay (SMO) | IC50 (C3H10T1/2 cells) | Compound |
| --- | --- | --- |
| >37 | 100 to 1000 nM | Cc1ccc(S(=O)(=O)n2ccc3c(C4=CCN(S(=O)(=O)C5CCN(C(=O)OC(C)(C)C)CC5)CC4)ncnc32)cc1 [Compound 239, tert-butyl 4-[[4-[7-(4-methylphenyl)sulfonylpyrrolo[2,3-d]pyrimidin-4-yl]-3,6-dihydro-2H-pyridin-1-yl]sulfonyl] piperidine-1-carboxylate] |
| 2.7 | 10 to 100 nM | CC1(C)COCN1C(=O)N1CC(S(=O)(=O)N2CCC(c3c[nH]c4ncccc34)CC2)C1 [Compound 256, (4,4-dimethyl-1,3-oxazolidin-3-yl)-[3-[4-(1H-pyrrolo[2,3-b]pyridin-3-yl)piperidin-1-yl]sulfonylaze-tidin-1-yl]methanone] |
| >10 | 100 to 1000 nM | COC(=O)[C@H]1C[C@H](S(=O)(=O)N2CCC(c3c[nH]c4ncccc34)CC2)C1 [Compound 274, methyl trans-3-[4-(1H-pyrrolo[2,3-b]pyridin-3-yl)piperidin-1-yl]sulfonylcycl obutane-1-carboxylate] |
| 4.3 | 100 to 1000 nM | O=C(NCCS(=O)(=O)N1CCC(c2c[nH]c3ncccc23)CC1)OC1CCCCC1 [Compound 292, cyclohexyl N-[2-[4-(1H-pyrrolo-[2,3-b]pyridin-3-yl)piperidin-1-yl]sulfonylethyl] carbamate] |
| 3.8 | 100 to 1000 nM | O=C([C@H]1C[C@@H](S(=O)(=O)N2CCC(c3c[nH]c4ncccc34)CC2)C1)N1CCOCC1 [Compound 296, cis-morpholin-4-yl-[3-[4-(1H-pyrrolo[2,3-b]pyridin-3-yl)piperidin-1-yl]sulfonylcyclobutyl] methanone] |
| 4.9 | 100 to 1000 nM | O=C(NC1(C(F)(F)F)CC1)[C@H]1C[C@H](S(=O)(=O)N2CCC(c3c[nH]c4ncccc34)CC2)C1 [Compound 298, trans-3-[4-(1H-pyrrolo[2,3-b]pyridin-3-yl)piperidin-1-yl]sulfonyl-N-[1-(trifluoromethyl)cyclopropyl] cyclobutane-1-carboxamide] |
| 4.8 | 100 to 1000 nM | O=C([C@H]1C[C@H](S(=O)(=O)N2CCC(c3c[nH]c4ncccc34)CC2)C1)N1CCOCC1 [Compound 308, trans-morpholin-4-yl-[3-[4-(1H-pyrrolo [2,3-b]pyridin-3-yl)piperidin-1-yl]sulfonyl-cyclobutyl] methanone] |
| 3.2 | 10 to 100 nM | C[C@@H](NC(=O)N1CC(S(=O)(=O)N2CCC(c3coc4cccnc34)CC2)C1)C(F)(F)F [Compound 328, 3-(4-furo[3,2-b]pyridin-3-ylpiperidin-1-yl)sulfonyl-N-[(2R)-1,1,1-trifluoropropan-2-yl]azetidine-1-carboxamide] |
| 5.4 | 10 to 100 nM | C[C@](O)(C(=O)N1CC(S(=O)(=O)N2CCC(c3c[nH]c4ncccc34)CC2)C1)C(F)(F)F [Compound 388, (2S)-3,3,3-trifluoro-2-hydroxy-2-methyl-1-[3-[4-(1H-pyrrolo[2,3-b]pyridin-3-yl)piperidin-1-yl]sulfonylaze-tidin-1-yl]propan-1-one] |
| 2.6 | 100 to 1000 nM | C[C@](O)(C(=O)N1CC(S(=O)(=O)N2CCC(c3coc4cccnc34)CC2)C1)C(F)(F)F [Compound 395, (2S)-3,3,3-trifluoro-1-[3-(4-furo[3,2-b]pyridin-3-ylpiperidin-1-yl)sulfonyl-azetidin-1-yl]-2-hydroxy-2-methylpropan-1-one] |
| 2.5 | 100 to 1000 nM | CC(C)(C)C(=O)CN1CC(S(=O)(=O)N2CCC(c3ccc(Cl)cc3)CC2)C1 [Compound 396, 1-[3-[4-(4-chlorophenyl)piperidin-1-yl]sulfonylaze-tidin-1-yl]-3,3-dimethylbutan-2-one] |
